US20040180958A1, “Method of treatment” (priority 2002, published 2004)

Legend:
[1] = test system: micturition reflex of anaesthetised rats; test: Continuous cystometry: effects of an alpha-2-delta ligand on the micturition reflex of anaesthetised rats; format: in vivo, rat
Protocol: Investigation into the Effects of an Alpha-2-delta Ligand on the Micturition Reflex of Anaesthetised Rats
Four caesarean derived (CD) rats weighing approximately 225 g were anaesthetised using urethane and continuous cystometry performed.
The animals were anaesthetised using urethane (1.2 g/kg, i.p.). Depth of anaesthesia was assessed by the stability of blood pressure and heart rate, and by an absence of hind limb withdrawal in response to paw pinch. Supplementary doses of urethane ([…], i.v.) were given where necessary.
The trachea was intubated to maintain a patent airway, an external jugular vein was cannulated for drug administration, and a common carotid artery was cannulated with a heparinised cannula (20 units/ml heparin in 0.9% w/v saline) for the measurement of arterial blood pressure.
Blood pressure was measured using a pressure transducer and the heart rate (HR) derived electronically on-line from the blood pressure using PoneMah (Linton Pty Ltd UK). Body temperature was monitored with a rectal temperature probe and maintained between 36-38° C. using a homeothermic blanket system (Harvard, UK). Animals were allowed to breathe air spontaneously throughout the duration of the experiment.
The urinary bladder was exposed by a midline abdominal incision. A cannula (c. 0.52 mm internal and 1.2 mm external diameter) was inserted into the bladder dome as a means of infusing the bladder while simultaneously recording intravesical bladder pressure. The bladder was infused with physiological saline (0.9%) at the rate of 0.046 ml/min, to simulate the maximal hourly diuresis rate of the rat (Klevmark B [1974]—Motility of the urinary bladder in cats during filling at physiological rates. I. Intravesical pressure patterns studied by a new method of cystometry. Acta Physiol Scand 90(3): 565-77).
Following the surgical procedure the animals were allowed to stabilise for c. 30 min. After the stabilisation period, cystometry was performed and bladder function (interval between micturition) in response to Gabapentin-HCl (0.3, 1, 3 and 10 mg/kg administered intravenously) was monitored.
Differences between treatment groups were examined using ANOVA.
Gabapentin-HCl (Tocris, UK) was dissolved in saline.

[2] = test system: male spontaneously hypertensive rat (SHR); test: Micturition frequency and bladder pressure by telemetry in the male spontaneously hypertensive rat (SHR); format: in vivo; details: 60 mg/kg s/c
Protocol: Effect of an Alpha-2-delta Ligand on Micturition Frequency and Bladder Pressure in the Male Spontaneously Hypertensive Rat (SHR)
Eight (8) male spontaneously hypertensive rats were prepared surgically with Data Sciences International (DSI) telemetry transponders (TL11M2-C50-PXT). Bladder pressure was continuously monitored with the aid of a pressure catheter placed via the dome of the bladder.
Bladder parameters (bladder pressure, voiding pressure and the number of voids) were recorded in response to placebo or treatment with 60 mg/kg Gabapentin administered subcutaneously (s/c).

SMILES	melting point [°C]	micturition interval ([1]; 10 mg/kg intravenously, control 3.1±0.29 min, P<0.05) [min]	adverse effects on micturition efficiency, urine retention or bladder contraction upon voiding ([1]; 10 mg/kg, anaesthetised rats)	bladder capacity improved ([1]; anaesthetised rats, intravenous, as a consequence of the longer micturition interval) [%]	interval between voiding events ([1]; urethane-anaesthetised CD rats, 0.3, 1, 3 and 10 mg/kg intravenously, relative to control periods)	bladder capacity ([2]; FIG. 2)	micturition interval ([2]; P<0.05, FIG. 2)	average bladder pressure during the filling stages of the micturition cycle ([2]; P<0.05 relative to control periods, FIG. 3)
CCC[C@@H](C)C[C@H](N)CC(=O)O.Cl	142.5 to 142.7							
CCCC[C@@H](C)C[C@H](N)CC(=O)O.Cl	142.5 to 143.3							
NCC1(CC(=O)O)CCCCC1 [gabapentin, 1-(aminomethyl)-cyclohexylacetic acid]		9.89 ± 2.72	did not have any adverse effects	200	significantly extended the interval between voiding events in a dose dependent manner	increased bladder capacity	significantly decreased	significantly decreased
